Experimental data from patent publication US7253177B2, “Synthesis and antimalarial activity of pyrrolo[3,2-f]quinazoline-1,3-diamine derivatives” (United States of America as Represented by the Secretary of …, priority 2004, dated 2007).
≈ marks a conversion by molar mass, not a printed value.

Tests used:
[1] = test system: Plasmodium falciparum W-2 clone (CDC Indochina III); assay: In vitro antimalarial study, [3H]hypoxanthine uptake, W-2 clone; format: cell-based
Method: B. Antimalarial Activities: (a). In Vitro Antimalarial Studies. The in vitro assays were conducted by using a modification of the semiautomated microdilution technique of Desjardins et al and Chulay et al.. Four P. falciparum malaria parasite clones, from CDC Indochina III (W-2), CDC Sierra Leone I (D-6), Southeast Asia Isolates (TM91C235) and RCS (Isolates from Brazil) were utilized in susceptibility testing. They were derived by direct visualization and micromanipulation from patient isolates. The W-2 clone is susceptible to mefloquine but resistant to chloroquine, sulfadoxine, pyrimethamine, and quinine, whereas the D-6 clone is naturally resistant to mefloquine but susceptible to chloroquine, sulfadoxine, pyrimethamine and quinine. Test compounds were initially dissolved in DMSO and diluted 400 fold in RPMI 1640 culture medium supplemented with 25 mM Hepes, 32 mM NaHCO3 and 10% Albumax I (Gibco BRL, Grand Island, N.Y.). These solutions were subsequently serially diluted two-fold with a Biomek 1000 (Beckman, Fullerton, Calif.) over 11 different concentrations. The parasites were exposed to serial dilutions of each compound for 48 hrs and incubated at 37° C. with 5% O2, 5% CO2 and 90% N2 prior to the addition of [^3H]hypoxanthine. After a further incubation of 18 hrs, parasite DNA was harvested from each microtiter well using Packard Filtermate 196 Harvester (Meriden, Conn.) onto glass filters. Uptake of [^3H]hypoxanthine was measured with a Packard Topcount Scintillation. Concentration-response data were analyzed by a non-linear regression logistic dose response model and the IC50 values (50% inhibitory concentrations) for each compound were calculated. (Table 3). (b). In Vivo Antimalarial Studies against P. berghei in mice: The in vivo efficacy of the artelinic acid analogs were determined in a modified Thompson test. This test measures the survivability of mice and parasitemia clearance following administration of drug on days 3-5 post infection. In brief, 5×10^6 P. berghei-infected erythrocytes (KBG-173 strain) were inoculated intraperitoneally to female mice that weighed 24-30 g. By day three post-infection, parasitemia ranged from 1.0-3.7%. Each drug, dissolved in 5% sodium bicarbonate, was administered PO twice daily from day 3-5 post-infection. Total doses for each drug ranged from 1.5-384 mg/kg with 8 mice included in each dosage group. The percent suppression of parasitemia in the treated mice compared to the untreated controls was determined for each test compound; the SD-50 (fifty percent suppression dose) and SD-90 were determined from a non-linear regression logistic dose response fit at day 6 parasitemia data. Survival of mice to day 60 post-infection was considered a cure (C). Compounds were considered active (A) when the survival time of the treated mice was greater than twice the control mice, i.e., 12-14 day (Table 4-5). (c). Sporozoite Induced Test Each compound is ground with a mortar & pestle and suspended in 0.5% hydroxyethylcellulose—0.1% Tween 80 for compounds to be administered PO and those given SC are suspended in peanut oil. Each compound is prepared at 3 different dose levels as requested by WRAIR. Compounds are administered either PO or SC to mice once 4 hr before inoculation of sporozoites. Four-week-old male CD-1 mice, purchased from Charles River and weighing 16-17 g, are placed 5 per cage and allowed to acclimate for 4 days before being treated and then inoculated with sporozoites. They are fed food and water ad-lib and maintained at 76° F. with 12 hr light and 12 hr darkness. The cages and water bottles are changed biweekly. The mice are weighed on Days 0, 3 and 6 then biweekly when blood films are taken. Plasmodium yoelii (17×) is used to infect mice that will be used to infect the mosquitoes. Mice are given a single dose of test compound 4 hr before being inoculated intraperitoneally with 2.5×10^5 sporozoites of Plasmodium yoelii on Day 0. […]

[2] = Toxicity study in Aotus monkey; format: in vivo; details: for CBC parameters / body weight change / adverse effects (anorexia, vomiting, diarrhea, behavior): single oral 3 mg/kg; for adverse effects (anorexia, vomiting, diarrhea, behavior): 28 day observation period; for behavior, weight or blood chemistry changes: single oral dose 3 mg/kg
Method: (e). Toxicity Study in Aotus monkey: Protocol: Two malaria double cured Aotus weighing 1027-695 grams respectively received single dose of 3 mg/kg orally of the two compounds 2b and 3e. The monkeys were weighed and pre-bleed for CBC and Chemistry (ALT, BUN, Creatinine) determination, and again three, seven and 15 days post treatment. Signs of toxicity such as anorexia, vomiting, diarrhea or behavior changes were recorded. […] (f). Antimalarial Activity against P. falciparum in Aotus monkey: Protocol: Six (6) malaria naive Aotus lemurinus lemurinus (weigh 787-978 grms) were divided into two groups of two Aotus each plus two controls (MN13177 male and MN 13153 male) and infected with 5×10^6 P. falciparum FVO malaria parasites with 1 ml of an appropriate dilution in RPMI media intravenously on the saphenous vein. When their parasitemia reached 5×10^4 parasites/ul, treatment was started. Giemsa-stained thick blood smears were prepared daily with a prick in the ear marginal vein and parasites enumerated by the Earle and Perez method. Group 1 Aotus received 3e at 1 mg/kg once a day×three days. Group 2 Aotus received 2b at 1 mg/kg once a day×three days. The monkeys were weight and pre-bled for CBC and Chemistry (ALT, BUN, Creatinine) determination, and on day 4 post-treatmetne (PT). Bleedings for Pk determinations were carried out on day 1 PT at time 0, 1 hr, 7:30 hr and 24 hr PT. Group 1 (receiving 3e) animals cleared the parasitemias on day 3 post treatment (PT) and remained negative up to 100 days PT. In group 2 (receiving 2b), one animal cleared on day 3 PT and the other one on day 4 PT remaining negative up to 100 days PT. […] (g). Antimalarial Activity against P. vivax in Aotus monkey: Protocol: Fourteen (14) P. falciparum cured Aotus l. lemurinus monkeys (male and female) (weight 700-925 grms) were infected intravenously with 5×10^6 parasites of the P. vivax AMRU-1 strain diluted in RPMI media obtained from a donor and divided into two larger groups of 6 monkeys each (Group I and Group II) (2 monkeys per dose level), that received 3e and 6 monkeys (2 monkeys per dose level) that received 2b daily at 0.5, 1.0 and 3 mg/kg/day for a total of 3 days. Two monkeys were left has untreated controls. Treatment started when parasitemia reached 5,000 parasites×cc/mm on day 6 PI. Daily food intake was documented. Daily Giemsa-stained thick blood smears were prepared from a prick in the marginal ear vein and parasites enumerated by the Earle and Perez method. The animals were weighed at weekly intervals. Blood samples for Pk determination were collected at the following time points as follows: Day 0: CBC and chemistry panel (ALT. Creatinine and BUN); Day 4: CBC and chemistry Panel. CBC and chemistry panels were done the day prior to first dose and 24 hours after last dose and at weekly intervals thereafter. […] The other monkeys received 1 and 3 mg/kg of 3e remained negative until day 100 PT. In Group II, all monkeys except for one that received 3 mg/kg of 2b failed treatment and were retreated on day 3 PT with 3e at either 0.25, 0.5 or 1 mg/kg for three days. In the monkeys that received re-treatment at 0.25 mg/kg, one cleared on day 4 PT but needed to be treated with Mefloquine on day 8 PT due to a low platelet count. The other animals that had not been cleared by day 6 PT were treated with Mefloquine. […] P. vivax is known to be very drug resistant to antifolates. (h). Presumptive Causal Prophylactic Test against P. cynomolgi in Rhesus monkey: Protocol: […]

Compound	IC50 ([1]; Plasmodium falciparum, read-out: IC50 W-2) [ng/mL]	CBC parameters [2]	body weight change [2]	adverse effects (anorexia, vomiting, diarrhea, behavior) [2]	behavior, weight or blood chemistry changes [2]	IC50 W-2 ([1]; P. falciparum W-2 clone) [ng/mL]
CC(=O)N(C(C)=O)c1nc(N(C(C)=O)C(C)=O)c2c(ccc3c2ccn3Cc2ccccc2C(F)(F)F)n1 [Compound 3e, 1,3-Bis(diacetylamino)-7-(2-trifluoromethyl)benzyl-7H-pyrrolo[3,2-f]quinazoline]	0.0752 (≈ 0.143 nM)	remained within normal ranges	No significant changes in body weight	No adverse effects	no behavior, weight or blood chemistry changes	
CCOC(=O)Nc1nc(NC(=O)OCC)c2c(ccc3c2ccn3Cc2ccccc2C(F)(F)F)n1 [Compound 2b]		remained within normal ranges	No significant changes in body weight	No adverse effects	no behavior, weight or blood chemistry changes	127.80 (≈ 255 nM)
